Assay results published in article PMC11434613, “The Remarkable and Selective In Vitro Cytotoxicity of Synthesized Bola-Amphiphilic Nanovesicles on Etoposide-Sensitive and -Resistant Neuroblastoma Cells” (Nanomaterials, 2024).
Where two headings read alike, the source gives them in different places.

Key:
Cos-7 cells [1] = assay: MTT cytotoxicity assay on Cos-7 cells; format: cell-based, African green monkey; settings: for IC50: MTT, concentration range 0.4–85.3 µM
Experimental: (§1) To assess the cytotoxicity properties of BPPB, the MTT (3-(4,5-dimethylthiazol-2-yl)-2,5-diphenyltetrazolium bromide) cell proliferation assay (Abcam, Prodotti Gianni s.r.l., Milano, Italy, Cat#ab2011091) was performed, following the manufacturer’s protocol, as previously reported. This time, the increasing concentrations of BPPB were in the range of 0.4–85.3 µM. The cell survival rate, expressed as cell viability percentage (%), was evaluated based on the experimental outputs of treated groups vs. the untreated groups (CTR) and was calculated as follows: cell viability (%) = (OD treated cells − OD blank)/(OD untreated cells − OD blank) × 100%.
(§2) In this study, the cytotoxicity profile of BPPB was assessed in both immortalized human liver cells (HepG2) cells, as in our previous works, and in transformed African green monkey kidney fibroblast cells (Cos-7), as reported in a recent paper. Specifically, we evaluated the cytotoxicity of BPPB by carrying out both the MTT proliferation assay and the lactate dehydrogenase (LHD) cytotoxicity assay, which measures the LDH activity as an indicator of cell death. Both cell lines were exposed for 24 h to increasing concentrations of BPPB (0.4–85.3 µM). Growth inhibition/death were determined by the MTT test, while cell cytotoxicity was determined by LDH assay, with respect to untreated control cells. Results are reported as bar graphs in Figure 8 and as dispersion graphs in Figures S13 and S14 in Supplementary Materials (Section S2).

[2] = MTT cytotoxicity assay on Cos-7 cells; format: cell-based, African green monkey; settings: African green monkey
Experimental: as §1, §2

HTLA-ER cells = assay: Cell viability assay (CellTiter 96 AQueous One Solution) on etoposide-resistant HTLA-ER NB cells; format: cell-based, human
Excerpt: HTLA-230 human stage-IV NB cells were kindly provided by Dr. L. Raffaghello (G. Gaslini Institute, Genoa, Italy). The HTLA-ER cells were selected by treating HTLA-230 parental cells for six months with increasing concentrations of etoposide, as previously reported. Both cell populations were maintained in RPMI 1640 medium (Euroclone Spa, Pavia, Italy) supplemented with 10% fetal bovine serum (FBS, Euroclone Spa, Pavia, Italy), 1% L-glutamine (Euroclone Spa, Pavia, Italy), and 1% Penicillin/Streptomicin (Euroclone Spa, Pavia, Italy) and grown in standard conditions (37 °C humidified incubator with 5% CO2).
To determine the cytotoxic effects of BPPB, in vitro time- and dose-dependent experiments were carried out. Cells were first treated for 24, 48, and 72 h, with increasing concentrations (0.5–50 µM) of the compound. In a subsequent series of the experiments, cells were treated for 24, 48, and 72 h with increasing concentration of BPPB in the range of 0.1–2 µM. […] Cell cultures were carefully monitored before and during the experiments to ensure optimal cell density.
Cell viability was determined by using the CellTiter 96® AQueous One Solution Cell Proliferation Assay (Promega, Madison, WI, USA), as previously described. Briefly, cells (10,000 cells/well) were seeded into 96-well plates (Corning Incorporated, Corning, NY, USA) and then treated. Next, cells were incubated with 20 µL of CellTiter, and the absorbance at 490 nm was recorded using a microplate reader (EL-808, BIO-TEK Instruments Inc., Winooski, VT, USA). IC50 was evaluated by GraphPad Prism 5.4.2 Software (GraphPad Software, Boston, MA, USA).
Results are expressed as the means ± S.D. of at least four independent experiments in which six different wells were analyzed every time for each experimental condition. The statistical significance of differences was determined by two-way analysis of variances (ANOVA) followed by Tukey’s multicomparison test using GraphPad Prism 8.0 (GraphPad Software v8.0, San Diego, CA, USA); p < 0.05 was considered statistically significant. Asterisks or other indicators (see Figures captions) indicate the following p-value ranges: p > 0.05 no symbols, * = p < 0.05, ** = p < 0.01, *** = p < 0.001, **** = p < 0.0001.

red blood cells (RBCs) = assay: In vitro hemolytic toxicity on red blood cells; format: cell-based, human; settings: for Hemolysis (hemolytic ratio): 60 min; for IC50: 60 min at 37 °C, 0.1–50 µM, blood of four healthy donors, read-out: IC50 RBCs (concentration needed to cause 50% hemolysis)
Experimental: The hemolytic ratio was evaluated, as recently reported with slight changes, in EDTA-blood samples from four healthy donors from the San Martino Hospital Transfusion Centre. Specifically, red blood cells (RBCs) were isolated by diluting 0.2 mL of blood with 0.4 mL of phosphate-buffered saline (PBS) and centrifuging it for 5 min at 10,000× g. The pellet, consisting of RBCs, was washed 5 times with 1.0 mL PBS and finally resuspended with 2.0 mL PBS. The assay was carried out on 0.1 mL of resuspended RBCs added to 0.1 mL of H2O (positive control), 0.1 mL of PBS (negative control), or 0.1 mL of the different concentrations (0.1–50 µM) of the compound to be tested (BPPB). The samples were incubated for 60 min at 37 °C, and at the end, they were centrifuged for 5 min at 10,000× g. Finally, 0.1 mL of supernatant was transferred to a transparent 96-well plate and measured by a spectrophotometer (Dynex Technologies; Chantilly, VA, U.S.A.) at 595 nm. The hemolytic ratio was calculated using the following formula:Hemolytic ratio (%) = (OD TEST − OD NEGATIVE CONTROL)/(OD POSITIVE CONTROL − OD NEGATIVE CONTROL) × 100
The hemolytic ratio percentage (%) caused by BPPB was assessed as recently reported with slight changes. In particular, EDTA-blood samples from four healthy donors were exposed to increasing concentrations of BPPB (0.1–50 µM).

HepG2 cells = tested on: HepG2 cells; set-up: method as in earlier work; settings: MTT test; Table S1, previously assessed characteristics; cited from earlier work
Cos-7 cells [3] = tested on: Cos-7 cells; set-up: method as in earlier work; settings: MTT test; Table S1, previously assessed characteristics; cited from earlier work

For c1ccc([P+](CCCCCCCCCCCC[P+](c2ccccc2)(c2ccccc2)c2ccccc2)(c2ccccc2)c2ccccc2)cc1 [BPPB, 1,1-(1,12-dodecanediyl)bis [1,1, 1]-triphenylphosphonium di-bromide], the “Selectivity index (SI) = IC50 Cos-7 / IC50 HTLA-230” value (Cos-7 cells [1]; 24 h) was 20.72, the IC50 (Cos-7 cells [1]; 24 h) was 4910 ± 810 nM and the IC50 (Cos-7 cells [1]; Chlorocebus sabaeus, COS-7, 24 h) was 4900 nM. For the same compound, the “Concentrations with a safety profile toward Cos-7” value (Cos-7 cells [1]; MTT test, 24 h) was no more than 4.3 µM, the viability at 24 h, 4.3 µM ([2]; Cos-7 cells, 4.3 µM, read-out: Cell viability Cos-7 (MTT)) was 64.2% and the viability at 24 h, 8.5 µM ([2]; Cos-7 cells, 8.5 µM, read-out: Cell viability Cos-7 (MTT)) was 27.4%. The selectivity ratio at 24 h ([2]; read-out: Selectivity index (SI) = IC50 Cos-7 / IC50 HTLA-ER) was 4.42, the “Cell viability HTLA-ER” value (HTLA-ER cells; 0.5 µM, 24 h, series 0.5–50 µM) was “not significantly different from that of controls” and the “Fold lower IC50 on HTLA-ER than that of ETO” value (HTLA-ER cells; 24 h, ETO IC50 592 µM from ref 58) was 538 fold. The “Cell viability HTLA-ER” value (HTLA-ER cells; 24 h, concentration at which hemolysis was inexistent (concentration not stated)) was 14.3%, the IC50 (HTLA-ER cells; 24 h exposure, refined concentration range 0.1–2 µM) was 1110 nM and the IC50 (HTLA-ER cells; 48 h exposure, refined concentration range 0.1–2 µM) was 930 ± 95.6 nM. It also gave an IC50 (HTLA-ER cells; 72 h exposure, refined concentration range 0.1–2 µM) of 833 ± 68.5 nM, an IC50 (HTLA-ER cells; Homo sapiens, 24 h, 24 h exposure, concentration range 0.5–50 µM) of 1850 ± 392 nM and an IC50 (HTLA-ER cells; Homo sapiens, 24 h, 24 h exposure, refined concentration range 0.1–2 µM) of 1100 nM. It also gave an IC50 (HTLA-ER cells; Homo sapiens, 48 h, 48 h exposure, concentration range 0.5–50 µM) of 732 ± 159 nM, an IC50 (HTLA-ER cells; Homo sapiens, 48 h, 48 h exposure, refined concentration range 0.1–2 µM) of 900 nM and an IC50 (HTLA-ER cells; Homo sapiens, 72 h, 72 h exposure, concentration range 0.5–50 µM) of 892 ± 167 nM. The IC50 (HTLA-ER cells; Homo sapiens, 72 h, 72 h exposure, refined concentration range 0.1–2 µM) was 800 nM, the IC50 (HTLA-ER cells; Homo sapiens, 72 h, over 24, 48, 72 h, range 0.1–2 µM) was 800 to 1100 nM and the viability at 0.5 µM (HTLA-ER cells; Homo sapiens, 0.5 µM, 48 h, series 0.5–50 µM) was 54.1%. For the same compound, the viability at 0.5 µM (HTLA-ER cells; Homo sapiens, 0.5 µM, 72 h, series 0.5–50 µM) was 62%, the “Cell viability HTLA-ER (plateau)” value (HTLA-ER cells; concentrations above 5–10 µM up to 50 µM, all exposure times) was 7–8% and the “Hemolysis (hemolytic ratio)” value (red blood cells (RBCs); 10 µM) was 25.1%. For the same compound, the “Hemolysis (hemolytic ratio)” value (red blood cells (RBCs); 20 µM) was 50.8%, the IC50 (red blood cells (RBCs)) was 14900 nM and the IC50 (red blood cells (RBCs); Homo sapiens, Erythrocyte, 1 h) was 14900 nM. For the same compound, the “Selectivity index (SI) = IC50 RBCs / IC50 HTLA-230” value (red blood cells (RBCs); NB cells 24 h exposure) was greater than 74, the “Selectivity index (SI) = IC50 RBCs / IC50 HTLA-ER” value (red blood cells (RBCs); NB cells 24 h exposure) was 13.56 and the “IC50 HepG2 cell” value (HepG2 cells) was 11.31 ± 1.54 µg/mL. For the same compound, the “IC50 COS-7 cell” value (Cos-7 cells [3]) was 5.76 ± 0.95 µg/mL.
